US20150080579A1, “Salts and Polymorphs of Dexrabeprazole” (Cipla Limited, priority 2010, published 2015)

What was measured:
[1] = Storage stability: water content by KF Autotitrator; assay type: physicochemical
Protocol: Water content was measured using about 0.2 g sample in methanol by KF Autotitrator.

[2] = Storage stability: impurity profile
[3] = At 6 months, storage at 2° C. to 8° C.
[4] = Initial, stability study at 2° C. to 8° C.

Compound	Water absorption on storage (in words) ([1]; 2° C. to 8° C. for 6 months)	Water content [1, 3]	Water content [1, 4]	Impurity A [2, 3]	Impurity B [2, 3]	Impurity C [2, 3]	Impurity A [2, 4]	Impurity B [2, 4]	Impurity C [2, 4]	Stability on storage (in words) ([2]; on storage)	Rise in impurities on storage (in words) ([2]; 2° C. to 8° C. for 6 months)
COCCCOc1ccnc(C[S@@+]([O-])c2nc3ccccc3[nH]2)c1C [dexrabeprazole sodium]	absorbed more water than dexrabeprazole magnesium	13.58 % w/w	6.84 % w/w	0.06%	1.25%	0.33%	0.02%	0.87%	0.22%	not stable on storage	–
dexrabeprazole magnesium hydrate	–	10.46 % w/w	10.27 % w/w	0.02%	0.07%	0.09%	0.02%	0.07%	0.09%	–	does not show significant rise in impurities
